# System: metastatic and/or recurrent breast cancer
# Assay: Phase III clinical trial, survival of patients treated with DPPE/doxorubicin versus doxorubicin alone
# Type: in vivo, human
# Experimental: In the treatment of metastatic and/or recurrent breast cancer, the diphenyl compound preferably is used in an amount of about 3 to about 10 mg/kg of patient administered intravenously over a period of about 30 to about 90 minutes prior to administration of the chemotherapeutic agent(s) and continuing for the period of administration of the chemotherapy agent(s). In the specific Phase III clinical trial described herein, there was employed 5.3 mg/kg of DPPE in the form of the base (equivalent to 6 mg/kg of DPPE in the form of its hydrochloride), administered intravenously as an aqueous solution thereof over 80 minutes, with the last twenty minutes being accompanied by infusion of the specific chemotherapeutic agent.
# The anthracycline chemotherapy agent active in breast cancer which is employed herein preferably is used in a total amount of about 50 to about 75 mg/M^2 of patient consistent with the identity of the anthracycline chemotherapy agent(s). In the specific Phase III clinical trial described herein, there was employed 60 mg/M^2 of doxorubicin administered over the last 20 minutes of infusion of the DPPE solution. […]
# The survival time of patients was determined in relation to ER status for patients receiving the DPPE/DOX combination and DOX alone. […]
# In addition, the survival times of patients was determined in relation to disease-free intervals for patients receiving the DPPE/DOX combination and DOX alone.
# The survival times of patients was determined in relation to the number of cycles of treatment for patients receiving the DPPE/DOX combination and DOX alone.
# The survival time for patients also was determined for those patients with metastatic breast cancer receiving no prior chemotherapy treatment in relation to those also had received prior chemotherapy treatment and for patients that had received no previous treatment type (i.e. no prior chemotherapy, radiotherapy and/or hormone treatment). The survival times were determined for patients receiving the DPPE/DOX combination and DOX alone.
SMILES,"median overall survival (patients with metastatic disease who had no previous chemotherapy, DPPE 5.3 mg/kg iv over 80 min, doxorubicin 60 mg/M^2 over last 20 min) [months]","median overall survival (patients with metastatic disease who had no previous treatment (chemotherapy, radiotherapy and/or hormone treatment)) [months]","increase in overall survival compared to the control group (patients with aggressive breast cancer, pretreatment with DPPE before doxorubicin)"
"COc1cccc2c1C(=O)c1c(O)c3c(c(O)c1C2=O)C[C@@](O)(C(=O)CO)C[C@@H]3O[C@H]1C[C@H](N)[C@H](O)[C@H](C)O1 [DOX, doxorubicin]",16.2,15,
"CCN(CC)CCOc1ccc(Cc2ccccc2)cc1 [DPPE, N,N-diethyl-2-[4-(phenylmethyl)-phenoxy]ethanamine]",,,about 50%

# Reference: patent publication US20050119263A1, “Treatment of breast cancer” (priority 2001, published 2005)
